Test systems include LOX IMVI; DU-145; UACC-62; 786-0; U-251; NCI-H226; NCI/ADR-RES; ACHN; M14; HL-60; TK-10; MDA-MB-435; T47D; NCI-H23; OVCAR-4; HOP-92; SN12C; HCC 2998; SF-539; CCRF-CEM.
Test in all cases: NCI-60 cell line screen, 48 h

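1) Cells in 96-well plates. 2) Compound, 48 h, 5 concentrations. 3) Linear interpolation between surrounding doses. 4) Unreached endpoint = highest concentration. GI50 = concentration required for 50% inhibition of growth.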 The source made the active and inactive calls. Cut-off read from the data, not from the text of the source: active = GI50 up to about 1.1 µM and inactive = higher.

Take `O=C(O)c1cc(O)nc(SCc2ccccc2)n1`: the GI50 with LOX IMVI, in the assay on DU-145, with UACC-62, with 786-0, in the assay on U-251 and in the assay on NCI-H226 was > 100 µM (inactive) in each case. For the same compound, the GI50 in the assay with NCI/ADR-RES, in the assay on ACHN, in the assay on M14, in the assay on HL-60, in the assay with TK-10 and with MDA-MB-435 was > 100 µM (inactive) each time. Also, the GI50 in the assay on T47D, with NCI-H23, with OVCAR-4, in the assay with HOP-92 and with SN12C was > 100 µM (inactive) throughout.

Consider `COc1ccc2c(c1)N=C1CSC(c3ccccc3Cl)N1C2` (stereo unspecified), for which the GI50 in the assay on LOX IMVI is 6.55 µM (inactive); in the assay on UACC-62 it was 4.08 µM (inactive); in the assay on 786-0, 11.5 µM (inactive); in the assay with U-251, 10.8 µM (inactive); with NCI-H226, 24 µM (inactive); in the assay with NCI/ADR-RES, 21.6 µM (inactive). Moreover, the GI50 in the assay with ACHN is 11.8 µM (inactive); in the assay on HCC 2998, 5.07 µM (inactive); in the assay with M14 it was 13 µM (inactive); in the assay on HL-60, 0.411 µM (active); with TK-10, 17.1 µM (inactive); with MDA-MB-435, 11.5 µM (inactive). In addition, the GI50 was 19.5 µM (inactive) with T47D; 17.9 µM (inactive) with NCI-H23; 14.1 µM (inactive) in the assay with OVCAR-4; 18.3 µM (inactive) in the assay on HOP-92; 5.48 µM (inactive) with SF-539; 11.1 µM (inactive) in the assay on SN12C.

Consider `O=C1CC(c2ccccc2)[S+]([O-])c2ccccc2N1` (stereo unspecified), for which the GI50 in the assay with LOX IMVI, in the assay with DU-145, in the assay on UACC-62, in the assay with 786-0, in the assay with U-251 and with NCI-H226 was > 100 µM (inactive) throughout. Also, the GI50 in the assay on NCI/ADR-RES, with ACHN, in the assay with M14, in the assay with HL-60, in the assay with TK-10 and in the assay with MDA-MB-435 was > 100 µM (inactive) each time. The GI50 with T47D, in the assay on NCI-H23, in the assay with OVCAR-4, in the assay on CCRF-CEM and in the assay on SN12C was > 100 µM (inactive) throughout.

As for `CC(C)(C)NC(NC(C)(C)C)=C(C(Cl)=C(Cl)Cl)[N+](=O)[O-]`, the GI50 in the assay with LOX IMVI, in the assay with DU-145, in the assay on UACC-62, in the assay on 786-0, in the assay with U-251 and in the assay on NCI-H226 was > 100 µM (inactive) each time. Besides, the GI50 in the assay with NCI/ADR-RES, with ACHN, in the assay on HCC 2998, with M14, in the assay on HL-60 and with TK-10 was > 100 µM (inactive) each time. Moreover, the GI50 with T47D, in the assay with NCI-H23, in the assay on OVCAR-4, in the assay on SF-539, with CCRF-CEM and in the assay on SN12C was > 100 µM (inactive) in each case.

Take `N=C(N)N/N=C/c1c(-c2ccc(Cl)c(Cl)c2Cl)nc2sccn12`: the GI50 in the assay with LOX IMVI was 1.64 µM (inactive); in the assay with DU-145, 1.7 µM (inactive); with UACC-62, 1.44 µM (inactive); with 786-0 it was 1.41 µM (inactive); with U-251, 1.2 µM (inactive); in the assay with NCI-H226 it was 1.68 µM (inactive). Besides, the GI50 is 3.23 µM (inactive) in the assay with ACHN; 1.57 µM (inactive) in the assay with M14; 1.63 µM (inactive) with HL-60; 1.4 µM (inactive) in the assay with TK-10; 1.85 µM (inactive) with MDA-MB-435; 1.59 µM (inactive) in the assay on T47D. Further, the GI50 in the assay with NCI-H23 is 1.29 µM (inactive); in the assay with OVCAR-4, 2.1 µM (inactive); in the assay with HOP-92, 1.44 µM (inactive); in the assay with SF-539 it was 3.33 µM (inactive); in the assay on SN12C, 1.5 µM (inactive).

In the case of `OCc1ccc2c(c1)CC1(Cc3ccccc3C1)C2`, the GI50 in the assay with LOX IMVI is 15.4 µM (inactive); in the assay with DU-145, 33.8 µM (inactive); with UACC-62 it was 20.1 µM (inactive); in the assay on 786-0, 15.1 µM (inactive); with NCI-H226, 28.1 µM (inactive); in the assay with NCI/ADR-RES, 16.8 µM (inactive). The GI50 in the assay with ACHN is 21 µM (inactive); in the assay with HCC 2998, 27.7 µM (inactive); in the assay on HL-60, 10.7 µM (inactive); in the assay on TK-10, 21.2 µM (inactive); in the assay on T47D, 26.6 µM (inactive); in the assay on NCI-H23 it was 33 µM (inactive). Also, the GI50 in the assay on OVCAR-4 is 34 µM (inactive); with HOP-92 it was 17.1 µM (inactive); with SF-539, 18.3 µM (inactive); with CCRF-CEM it was 4.39 µM (inactive); in the assay with SN12C it was 17.4 µM (inactive).

`CCCCCCCCCCCCCCCC(=O)ON1C(=S)NC(C)(c2ccccc2)C1=S` (stereo unspecified): the GI50 in the assay on LOX IMVI was 45.2 µM (inactive); in the assay on DU-145, > 100 µM (inactive); in the assay with UACC-62, > 100 µM (inactive); in the assay on 786-0, 60 µM (inactive); in the assay with NCI-H226, 87.9 µM (inactive); with NCI/ADR-RES, > 100 µM (inactive). For the same compound, the GI50 in the assay on ACHN was > 100 µM (inactive); in the assay with HCC 2998 it was 38.5 µM (inactive); in the assay with M14, 30.3 µM (inactive); in the assay on HL-60, 94.6 µM (inactive); in the assay with TK-10, > 100 µM (inactive); in the assay on T47D, > 100 µM (inactive). For the same compound, the GI50 in the assay with NCI-H23 is > 100 µM (inactive); with OVCAR-4, > 100 µM (inactive); with HOP-92 it was > 100 µM (inactive); in the assay on SF-539, > 100 µM (inactive); with CCRF-CEM, 36.4 µM (inactive); in the assay with SN12C, > 100 µM (inactive).

Regarding `O=C(CC(C(=O)c1ccsc1)c1cccs1)c1ccccc1` (stereo unspecified), the GI50 is 78 µM (inactive) in the assay on LOX IMVI; 54.6 µM (inactive) in the assay with DU-145; 49.2 µM (inactive) in the assay with UACC-62; > 100 µM (inactive) with 786-0; 98.9 µM (inactive) in the assay on U-251; > 100 µM (inactive) in the assay on NCI-H226. For the same compound, the GI50 with ACHN is > 100 µM (inactive); in the assay with HCC 2998, > 100 µM (inactive); in the assay with M14 it was 69.2 µM (inactive); in the assay with HL-60 it was 71.4 µM (inactive); in the assay with TK-10 it was > 100 µM (inactive); with MDA-MB-435, 57.3 µM (inactive). Further, the GI50 with T47D was 9.57 µM (inactive); in the assay on NCI-H23 it was 29.7 µM (inactive); in the assay with OVCAR-4, 18.3 µM (inactive); with HOP-92, > 100 µM (inactive); in the assay on SF-539 it was > 100 µM (inactive); with CCRF-CEM, 80.4 µM (inactive). The GI50 with SN12C is > 100 µM (inactive).

Take `COC(=O)CCC(=O)c1ccc2c(c1)CC1(C2)Cc2ccc(C(=O)CCC(=O)OC)cc2C1`: the GI50 in the assay on LOX IMVI was > 100 µM (inactive); in the assay on UACC-62, > 100 µM (inactive); in the assay with 786-0, 30.8 µM (inactive); in the assay with U-251 it was 36.4 µM (inactive); in the assay on NCI/ADR-RES, 37.4 µM (inactive); with ACHN, 25.8 µM (inactive). In addition, the GI50 is > 100 µM (inactive) with HCC 2998; 66.5 µM (inactive) with M14; 56.2 µM (inactive) with HL-60; 82.6 µM (inactive) with TK-10; > 100 µM (inactive) in the assay on MDA-MB-435; 56 µM (inactive) in the assay with T47D. The GI50 in the assay on NCI-H23 is 59.7 µM (inactive); with OVCAR-4, 32.7 µM (inactive); with HOP-92, > 100 µM (inactive); with SF-539, 67.5 µM (inactive); in the assay on CCRF-CEM, > 100 µM (inactive); with SN12C, > 100 µM (inactive).

In the case of `COc1ccc(NC(=O)C2=C(SC)C(C#N)C(=O)N=C2N)cc1` (stereo unspecified), the GI50 with LOX IMVI was > 100 µM (inactive); with DU-145, > 100 µM (inactive); with UACC-62, > 100 µM (inactive); in the assay with 786-0 it was 65.8 µM (inactive); in the assay on U-251 it was > 100 µM (inactive); with NCI-H226, > 100 µM (inactive). Also, the GI50 in the assay on ACHN is > 100 µM (inactive); in the assay with HCC 2998 it was > 100 µM (inactive); in the assay on M14, > 100 µM (inactive); with HL-60 it was 31.2 µM (inactive); with TK-10, > 100 µM (inactive); with MDA-MB-435, > 100 µM (inactive). The GI50 in the assay with T47D is 49.4 µM (inactive); in the assay on NCI-H23, > 100 µM (inactive); with OVCAR-4, > 100 µM (inactive); in the assay with HOP-92 it was 14 µM (inactive); in the assay with SF-539, > 100 µM (inactive); in the assay on CCRF-CEM, 25.7 µM (inactive). Besides, the GI50 in the assay on SN12C was > 100 µM (inactive).

Consider `CC1C(NNc2ccccc2)Oc2cc3c(cc2C1c1ccccc1O)OCO3` (stereo unspecified), for which the GI50 was 12.5 µM (inactive) in the assay on LOX IMVI; 3.89 µM (inactive) in the assay on DU-145; 1.44 µM (inactive) in the assay on UACC-62; 5.53 µM (inactive) with 786-0; 10.1 µM (inactive) in the assay with U-251; 12.8 µM (inactive) in the assay with NCI-H226. The GI50 in the assay with ACHN was 0.962 µM (active); in the assay on HCC 2998 it was 4.56 µM (inactive); in the assay with M14, 1.93 µM (inactive); in the assay with HL-60 it was 4.01 µM (inactive); in the assay on TK-10 it was 4.81 µM (inactive); with MDA-MB-435, 0.946 µM (active). Further, the GI50 was 2.77 µM (inactive) with T47D; 12.8 µM (inactive) in the assay on NCI-H23; 13.5 µM (inactive) in the assay with HOP-92; 2.01 µM (inactive) in the assay on SF-539; 1.4 µM (inactive) with CCRF-CEM; 5.79 µM (inactive) in the assay on SN12C.

The record behind these values is ChEMBL document CHEMBL1201862, “PubChem BioAssay data set” (2004).
